From ChEMBL document CHEMBL1201862, “PubChem BioAssay data set” (2004)
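Step 1: Grow cells in 96-well plates. Step 2: Expose to compound for 48 hours at 5 concentrations. Step 3: Interpolate endpoints linearly; if unreached, use highest concentration. GI50 is the concentration that inhibits growth by half.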 Activity calls are given as the source filed them. Cut-off read from the data, not from the text of the source: active = GI50 up to about 1.1 µM and inactive = higher.

What was measured:
Assay in all cases: DTP human tumour cell line panel, 48 h
[1] = tested on: M14
[2] = tested on: SN12C
[3] = tested on: RXF 393
[4] = tested on: SK-OV-3
[5] = tested on: Hs-578T
[6] = tested on: COLO 205
[7] = tested on: SF-539
[8] = tested on: T47D
[9] = tested on: SF-268
[10] = tested on: NCI-H460
[11] = tested on: OVCAR-5
[12] = tested on: EKVX
[13] = tested on: LOX IMVI
[14] = tested on: DU-145
[15] = tested on: CAKI-1
[16] = tested on: HL-60
[17] = tested on: UO-31
[18] = tested on: SW-620
[19] = tested on: HOP-62
[20] = tested on: HCC 2998

For `CSc1ncc2c(n1)-c1ccccc1OC2NC1CC1` (stereo not given), the GI50 [1] was > 100 µM (inactive), the GI50 [2] was 63.5 µM (inactive) and the GI50 [3] was > 100 µM (inactive). For the same compound, the GI50 [4] was > 100 µM (inactive), the GI50 [5] was 38.1 µM (inactive) and the GI50 [6] was > 100 µM (inactive). For the same compound, the GI50 [7] was > 100 µM (inactive), the GI50 [8] was 28.6 µM (inactive) and the GI50 [9] was 92.7 µM (inactive). The GI50 [10] was 81.8 µM (inactive), the GI50 [11] was > 100 µM (inactive) and the GI50 [12] was 51.2 µM (inactive). The GI50 [13] was 92 µM (inactive), the GI50 [14] was 63 µM (inactive) and the GI50 [15] was 29.6 µM (inactive). For the same compound, the GI50 [16] was 30.2 µM (inactive), the GI50 [17] was 33.2 µM (inactive) and the GI50 [18] was > 100 µM (inactive).

For `NC1(P(=O)(O)O)CCCCC1`, the GI50 [1] was > 100 µM (inactive), the GI50 [2] was > 100 µM (inactive) and the GI50 [3] was > 100 µM (inactive). The GI50 [4] was > 100 µM (inactive), the GI50 [5] was > 100 µM (inactive) and the GI50 [6] was > 100 µM (inactive). For the same compound, the GI50 [7] was > 100 µM (inactive), the GI50 [19] was > 100 µM (inactive) and the GI50 [8] was > 100 µM (inactive). The GI50 [9] was > 100 µM (inactive), the GI50 [10] was > 100 µM (inactive) and the GI50 [11] was > 100 µM (inactive). For the same compound, the GI50 [12] was > 100 µM (inactive), the GI50 [13] was > 100 µM (inactive) and the GI50 [14] was > 100 µM (inactive). The GI50 [15] was > 100 µM (inactive), the GI50 [16] was < 0.01 µM (active) and the GI50 [18] was > 100 µM (inactive).

`CCCCCCc1nn2c(-c3ccc(C)cc3)nnc2s1` was tested, and the GI50 [1] was > 100 µM (inactive), the GI50 [2] was > 100 µM (inactive) and the GI50 [3] was 77.8 µM (inactive). For the same compound, the GI50 [4] was > 100 µM (inactive), the GI50 [5] was > 100 µM (inactive) and the GI50 [6] was > 100 µM (inactive). The GI50 [7] was 81.8 µM (inactive), the GI50 [19] was > 100 µM (inactive) and the GI50 [8] was 58.7 µM (inactive). The GI50 [9] was > 100 µM (inactive), the GI50 [10] was 80 µM (inactive) and the GI50 [11] was > 100 µM (inactive). For the same compound, the GI50 [12] was 76.9 µM (inactive), the GI50 [14] was > 100 µM (inactive) and the GI50 [15] was > 100 µM (inactive). The GI50 [17] was > 100 µM (inactive) and the GI50 [18] was > 100 µM (inactive).

`Cc1ncc([N+](=O)[O-])n1CCNC(=O)CCCCn1ccnc1[N+](=O)[O-]` was tested, and the GI50 [1] was > 100 µM (inactive), the GI50 [2] was > 100 µM (inactive) and the GI50 [4] was > 100 µM (inactive). For the same compound, the GI50 [5] was > 100 µM (inactive), the GI50 [6] was 36.3 µM (inactive) and the GI50 [7] was > 100 µM (inactive). For the same compound, the GI50 [20] was > 100 µM (inactive), the GI50 [19] was > 100 µM (inactive) and the GI50 [8] was > 100 µM (inactive). For the same compound, the GI50 [9] was > 100 µM (inactive), the GI50 [10] was > 100 µM (inactive) and the GI50 [11] was > 100 µM (inactive). For the same compound, the GI50 [14] was > 10 µM (inactive), the GI50 [15] was > 100 µM (inactive) and the GI50 [16] was > 100 µM (inactive). For the same compound, the GI50 [17] was > 100 µM (inactive) and the GI50 [18] was > 100 µM (inactive).
